Results: the supplement of paper PMC4858399
Where a name gives a salt, the structure may show the parent alone.

Tests used:
Details in all cases: exposure time 48 h
[1] = system: Caenorhabditis elegans N2; experiment: mean nematode size ln(EXT) after 48 h, plate-adjusted (DMSO control set to 6) (ln(EXT), control-adjusted); higher = larger nematodes / less growth inhibition
Procedure, shortened: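 Synchronised C. elegans N2 L1 larvae were grown for 48 h at 20°C in K-medium containing killed OP50, 1% DMSO and 0.5–200 µM chemical, at 50 per well and 4–6 wells per treatment. The Biosort recorded extinction for each worm, and a growth model removed debris. Worm size was obtained by natural-logging these values and averaging them per well. For plate adjustment, the vehicle control mean was subtracted and 6 was added.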

[2] = system: Caenorhabditis elegans N2; experiment: AC50 for larval growth inhibition (Hill fit); higher = less potent
Procedure, shortened: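 AC50 values come from a constrained Hill fit by weighted genetic-algorithm regression and are censored when out of range. The fit used only wells with at least 10 worms. Each well of a 96-well plate held 50 synchronised C. elegans N2 L1 larvae in K-medium with killed OP50, 1% DMSO and 0.5–200 µM chemical for 48 h at 20°C. A COPAS Biosort recorded each worm's size as extinction, which was log-transformed and averaged per well.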

[3] = system: Caenorhabditis elegans N2; experiment: lowest effective concentration for larval growth inhibition (size below effect threshold); higher = less potent
Procedure, shortened: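 Worm size was taken as per-worm extinction on the Biosort, log-transformed and turned into well means. The larvae (C. elegans N2, L1 stage, 50 per 96-well) had spent 48 h at 20°C in K-medium with killed bacteria, 1% DMSO and 0.5, 1, 5, 10, 50, 100 or 200 µM chemical. The lowest effective concentration marks the first dose where the plate-adjusted mean size drops under a cutoff and remains under it at every higher dose; the cutoff is 5.665.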

| SMILES | mean nematode size ln(EXT) (ln) ([1]; 0.5 µM) | mean nematode size ln(EXT) (ln) ([1]; 1 µM) | mean nematode size ln(EXT) (ln) ([1]; 5 µM) | mean nematode size ln(EXT) (ln) ([1]; 10 µM) | mean nematode size ln(EXT) (ln) ([1]; 50 µM) | mean nematode size ln(EXT) (ln) ([1]; 100 µM) | mean nematode size ln(EXT) (ln) ([1]; 200 µM) | AC50 for larval growth inhibition [2] | lowest effective concentration [3] |
| --- | --- | --- | --- | --- | --- | --- | --- | --- | --- |
| CCCCCCCCCCCCc1ccc(S(=O)(=O)O)cc1 [4-Dodecylbenzenesulfonic acid] | 5.45 | 5.6 | 5.55 | 5.63 | 4.03 | 3.77 | 3.53 | 27.5 µM | ≤ 0.5 µM |
| CN1C(=O)CC[C@H]1c1cccnc1 [(-)-Cotinine] | 5.86 | 5.93 | 5.88 | 5.82 | 5.9 | 5.87 | 5.65 | > 200 µM | 200 µM |
| CCOc1ccc2c(c1)C(C)=CC(C)(C)N2 [Ethoxyquin] | 5.78 | 5.74 | 5.77 | 5.78 | 5.71 | 5.61 | 5.17 | > 200 µM | 100 µM |
| Cc1ccc(Cl)cc1 [4-Chlorotoluene] | 5.8 | 5.74 | 5.72 | 5.77 | 5.8 | 5.63 | 5.37 | > 200 µM | 100 µM |
| N#Cc1c(Cl)c(Cl)c(Cl)c(C#N)c1Cl [Chlorothalonil] | 5.66 | 5.94 | 5.95 | 5.95 | 5.88 | 5.85 | 4.4 | 193 µM | 200 µM |
| Cc1ccc(-c2c(Cl)nc(C#N)n2S(=O)(=O)N(C)C)cc1 [Cyazofamid] | 5.91 | 5.91 | 5.88 | 6.02 | 5.84 | 5.29 | 4.91 | 60.5 µM | 100 µM |
| Cc1c(COC(=O)[C@@H]2[C@H](/C=C(\Cl)C(F)(F)F)C2(C)C)cccc1-c1ccccc1 (racemic) [Bifenthrin] | 5.92 | 5.85 | 5.84 | 5.96 | 5.9 | 5.78 | 5.37 | > 200 µM | 200 µM |
| CCCCCCOC(=O)c1ccccc1C(=O)OCCCCCC [Dihexyl phthalate] | 5.8 | 5.83 | 5.89 | 5.83 | 5.81 | 5.73 | 5.5 | > 200 µM | 200 µM |
| CN1CCN(Cc2cc(-c3ccc4[nH]c(=O)oc4c3)co2)[C@@H](c2ccc(F)cc2)C1 | 5.7 | 5.65 | 5.75 | 5.61 | 5.3 | 4.92 | 3.58 | 114 µM | 10 µM |
| CCCCCCCCCCCCO [1-Dodecanol] | 5.89 | 5.85 | 5.73 | 5.63 | 3.72 | 3.69 | 3.49 | 20.3 µM | 10 µM |
| CCCOC(=O)c1ccc(C(=O)OCCC)nc1 [2,5-Pyridinedicarboxylic acid, dipropyl ester] | 5.88 | 5.95 | 5.98 | 5.99 | 5.93 | 5.85 | 5.38 | > 200 µM | 200 µM |
| CCN(CC)C(=O)SCc1ccc(Cl)cc1 [Thiobencarb] | 5.97 | 5.98 | 5.97 | 5.95 | 5.44 | 4.48 | 4.48 | 51.1 µM | 50 µM |
| O=c1c(-c2ccc(O)cc2)coc2cc(O)cc(O)c12 [Genistein] | 5.88 | 5.89 | 5.92 | 5.85 | 5.89 | 5.89 | 5.53 | > 200 µM | 200 µM |
| O=C(O)C(F)(F)C(F)(F)C(F)(F)C(F)(F)C(F)(F)C(F)(F)C(F)(F)F [Pentadecafluorooctanoic acid ammonium salt] | 5.88 | 5.86 | 5.85 | 5.84 | 5.83 | 5.68 | 5.43 | > 200 µM | 200 µM |
| CC(C)CCCCCCCOC(=O)CCCCC(=O)OCCCCCCCC(C)C [Diisodecyl adipate] | 5.86 | 5.91 | 5.83 | 5.89 | 5.89 | 5.89 | 5.53 | > 200 µM | 200 µM |
| NC(=O)N(O)[C@@H]1C=C[C@H](Oc2cccc(Oc3ccc(F)cc3)c2)C1 | 5.9 | 6.14 | 6.17 | 6.17 | 5.89 | 5.05 | 4.86 | 72.9 µM | 100 µM |
| CN(C)c1ccc(Cc2ccc(N(C)C)cc2)cc1 [4,4'-methylenebis(N,N-dimethylaniline)] | 5.92 | 5.8 | 5.81 | 5.86 | 5.74 | 5.17 | 5.04 | 66.3 µM | 100 µM |
| Cc1cc(CCN2CCN(c3nsc4ccccc34)CC2)cc2c1NC(=O)CC2(C)C | 5.77 | 5.72 | 5.61 | 5.4 | 4.49 | 4.01 | 3.55 | 41.3 µM | 5 µM |
| CCc1nc(N)nc(N)c1-c1ccc(Cl)cc1 [Pyrimethamine] | 5.86 | 5.91 | 6.02 | 5.67 | 5.66 | 5.43 | 4.91 | > 200 µM | 50 µM |
| CCOC(=O)C(Cl)Cc1cc(-n2nc(C)n(C(F)F)c2=O)c(F)cc1Cl (centres undefined) [Carfentrazone-ethyl] | 6.04 | 5.98 | 6.04 | 6.04 | 5.93 | 5.98 | 5.59 | > 200 µM | 200 µM |
| O=[N+]([O-])c1ccc(Oc2ccc(Cl)cc2Cl)cc1 [2,4-dichloro-1-(4-nitrophenoxy)benzene] | 5.88 | 5.74 | 5.03 | 3.93 | 3.8 | 3.76 | 4.04 | 5.16 µM | 5 µM |
| COc1ccc(C(c2ccc(OC)cc2)C(Cl)(Cl)Cl)cc1 [Methoxychlor] | 5.6 | 5.46 | 5.58 | 5.19 | 4.71 | 4.01 | 3.61 | 39 µM | ≤ 0.5 µM |
| CN(C)C(=O)Nc1ccc(Cl)cc1 [Monuron] | 5.99 | 6 | 5.94 | 5.98 | 5.86 | 5.79 | 5.34 | > 200 µM | 200 µM |

| SMILES | mean nematode size ln(EXT) (ln) ([1]; 0.5 µM) | mean nematode size ln(EXT) (ln) ([1]; 1 µM) | mean nematode size ln(EXT) (ln) ([1]; 5 µM) | mean nematode size ln(EXT) (ln) ([1]; 10 µM) | mean nematode size ln(EXT) (ln) ([1]; 50 µM) | mean nematode size ln(EXT) (ln) ([1]; 100 µM) | mean nematode size ln(EXT) (ln) ([1]; 200 µM) | AC50 for larval growth inhibition [2] | lowest effective concentration [3] |
| --- | --- | --- | --- | --- | --- | --- | --- | --- | --- |
| C=CCC1=C(C)[C@@H](OC(=O)[C@@H]2[C@@H](C=C(C)C)C2(C)C)CC1=O [S-Bioallethrin] | 5.65 | 5.78 | 5.76 | 5.76 | 5.48 | 5.62 | 5.39 | > 200 µM | 50 µM |
| NC(=O)N1C(=O)C(C(=O)c2cc(Cl)cs2)c2cc(F)c(Cl)cc21 (centres undefined) | 5.49 | 4.96 | 4.54 | 4.37 | 4.04 | 4.02 | – | 1.41 µM | ≤ 0.5 µM |
| CN(C)C(=O)C1(N2CCCCC2)CCN(CCC2(c3ccc(Cl)c(Cl)c3)CN(C(=O)c3ccccc3)CCO2)CC1 (centres undefined) | 5.78 | 5.82 | 5.83 | 5.77 | 5.23 | 4.76 | 4.06 | 119 µM | 50 µM |
| CSc1ccc(Oc2ccc(S(N)(=O)=O)cc2CN(C)C)cc1C | 5.74 | 5.87 | 5.86 | 5.84 | 5.83 | 5.69 | 5.17 | > 200 µM | 200 µM |
| CC[C@H](C)C(=O)O[C@H]1C[C@@H](C)C=C2C=C[C@H](C)[C@H](CC[C@@H]3C[C@@H](O)CC(=O)O3)[C@H]21 [Lovastatin] | 5.85 | 5.83 | 5.8 | 5.83 | 5.65 | 5.23 | 5.06 | > 200 µM | 50 µM |
| Nc1ccc2ccccc2c1 [2-Naphthylamine] | 6 | 5.76 | 5.94 | 5.72 | 5.71 | 5.89 | 5.51 | > 200 µM | 200 µM |
| Fc1ccc(Oc2ccnc3cc(Cl)cc(Cl)c23)cc1 [Quinoxyfen] | 4.9 | 5.31 | 4.26 | 4.2 | 3.97 | 4 | 3.68 | 1.53 µM | ≤ 0.5 µM |
| COCC(C)OCC(C)O (centres undefined) [Propanol, 1 (or 2)-(2-methoxymethylethyoxy)-] | 5.9 | 5.9 | 5.88 | 5.85 | 5.92 | 5.82 | 5.66 | > 200 µM | 200 µM |
| CCNS(=O)(=O)C(F)(F)C(F)(F)C(F)(F)C(F)(F)C(F)(F)C(F)(F)C(F)(F)C(F)(F)F [Sulfluramid] | 5.81 | 5.84 | 5.48 | 5.23 | 4.32 | 4.08 | 3.24 | 31.4 µM | 5 µM |
| CO/N=C(/C(=O)OC)c1ccccc1CO/N=C(\C)c1cccc(C(F)(F)F)c1 [Trifloxystrobin] | 5.88 | 5.87 | 5.71 | 5.82 | 5.92 | 4.16 | 3.43 | 90.8 µM | 100 µM |
| O=C1c2ccccc2C(=O)N1SC(Cl)(Cl)Cl [Folpet] | 5.89 | 5.98 | 5.57 | 5.84 | 5.53 | 5.55 | 5.09 | > 200 µM | 50 µM |
| CCOC(=O)COc1ccc2c(c1)CC(NCC(O)c1cccc(Cl)c1)CC2 (centres undefined) | 5.79 | 5.81 | 5.87 | 5.81 | 5.76 | 5.75 | 5.5 | > 200 µM | 200 µM |
| CCSC(=O)N1CCCCCC1 [Molinate] | 5.42 | 5.42 | 5.29 | 5.63 | 5.44 | 5.62 | 5.21 | > 200 µM | ≤ 0.5 µM |
| Clc1cccc(Cl)c1Cl [1,2,3-Trichlorobenzene] | 6.08 | 6.04 | 6.06 | 6.07 | 6.02 | 5.98 | 3.55 | 122 µM | 200 µM |
| C/C=C/c1ccc(OC)cc1 [(E)-Anethole] | 6.06 | 5.98 | 6.01 | 6.06 | 5.97 | 5.96 | 5.49 | > 200 µM | 200 µM |
| O=c1[nH]cc(F)c(=O)[nH]1 [5-Fluorouracil] | 5.8 | 5.84 | 5.91 | 5.82 | 5.63 | 5.3 | 4.19 | 162 µM | 50 µM |
| CCCCCCCCCC(=O)O [Decanoic acid] | 5.89 | 5.86 | 5.85 | 5.87 | 5.85 | 5.68 | 5.66 | > 200 µM | 200 µM |
| O=C(Oc1ccc(Br)cc1)N1CCN2CCC1CC2 [4-bromophenyl 1,4-diazabicyclo[3.2.2]nonane-4-carboxylate] | 5.84 | 5.83 | 5.81 | 5.83 | 5.65 | 5.6 | 5.33 | > 200 µM | 50 µM |
| CCc1nn(C2CCCCC2)c2cc(C3(C#N)CCC(C(=O)O)CC3)ccc12 (centres undefined) | 5.91 | 5.88 | 5.86 | 5.93 | 5.81 | 5.67 | 5.45 | > 200 µM | 200 µM |
| CC(=O)[O][Hg][c]1ccccc1 [Phenylmercuric acetate] | 5.43 | 5.07 | 4.25 | 3.93 | 4.09 | 4.09 | 3.02 | 1.02 µM | ≤ 0.5 µM |
| C=CCOC(Cn1ccnc1)c1ccc(Cl)cc1Cl (centres undefined) [Imazalil] | 5.91 | 6.17 | 6.07 | 5.99 | 5.83 | 5.74 | 4.6 | > 200 µM | 200 µM |
| O=C(Nc1ccccc1)c1ccccc1I [Benodanil] | 5.99 | 5.98 | 5.62 | 5.66 | 4.16 | 4.19 | 3.37 | 39.3 µM | 5 µM |
